Measurements published in patent US12419307B2, “Mixtures comprising indazole pesticides” (FMC Corporation, priority 2019, dated 2025).
Read-outs that look alike come from different tables or passages of the source.

Legend:
Type in all cases: in vivo
[1] = test system: cotton melon aphid (Aphis gossypii Glover); assay: Test D: cotton melon aphid control on okra plants, insect mortality after 6 days; settings: Aphis gossypii, read-out: % Mortality (obs)
Method in brief: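 Okra plants (6–7 days old) pre-infested with 30–40 aphids by cut-leaf transfer were sprayed, three replicates, then held 6 days at 19-21° C and 50-70% RH before mortality scoring. Mixture enhancement was judged against Colby-expected % mortality.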

[2] = test system: diamondback moth (Plutella xylostella L.); assay: Test E: diamondback moth control on mustard plants, contact and/or systemic, plant damage rating after 6 days
Method in brief: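 Sprayed 10- to 12-day-old mustard plants (3 replicates), dried 1 h, infested with 30-50 neonate larvae, then held 6 days at 24-25 °C, 70% RH. Plant damage visually rated 0 (undamaged) to 10 (dead); mixture effects judged by Colby's equation.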

[3] = test system: silverleaf whitefly (Bemisia argentifolii Bellows and Perring); assay: Test A: silverleaf whitefly control on cotton or soybean plants, spray, insect mortality after 13 days; settings: Bemisia argentifolii, applied alone, read-out: % Mortality (obs)
Method in brief: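 Cotton (12–14-day) or soybean (5–7-day) plants carrying whitefly eggs were sprayed with compound in 10% acetone/water with non-ionic surfactant. Plants were held 13 days at 28°C and 50–70% RH; mortality was averaged over three replicates. Mixture enhancement was judged against Colby-expected values.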

[4] = test system: Potato Leafhopper (Empoasca fabae Harris); assay: Test C: Potato Leafhopper control on bean plants, insect mortality after 6 days; settings: read-out: % Mortality (obs)
Method in brief: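 Sprays (3 replicates) were applied to 5- to 6-day-old Longio bean plants with one primary leaf excised, which were dried 1 h and infested with 5 adult leafhoppers (18–21 days old). Mortality was scored after 6 days at 19-21° C and 50-70% RH. Mixture enhancement was judged against expected mortality by Colby's equation.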

CC1(NC(=O)c2cccc3nn(-c4cccnc4)cc23)CC1 [Cpd 4, N-(1-methylcyclopropyl)-2-(3-pyridinyl)-2H-indazole-4-carboxamide]
mortality at 0.2 ppm ([1]; 5 h, Table 5h): 44.6% | mortality at 0.5 ppm ([1]; 5 h, Table 5h): 68.7% | mortality at 0.2 ppm ([1]; 120 h, Table 5d): 48.3% | mortality at 0.5 ppm ([1]; 120 h, Table 5d): 58.9% | mortality at 0.2 ppm ([1]; Table 5a): 48.3% | mortality at 0.5 ppm ([1]; Table 5a): 58.9% | mortality at 0.2 ppm ([1]; Table 5b): 48.3% | mortality at 0.5 ppm ([1]; Table 5b): 58.9% | mortality at 0.2 ppm ([1]; Table 5c): 6.7% | mortality at 0.5 ppm ([1]; Table 5c): 6.7% | mortality at 0.2 ppm ([1]; Table 5e): 30.8% | mortality at 0.5 ppm ([1]; Table 5e): 69.7% | mortality at 0.2 ppm ([1]; Table 5f): 40.7% | mortality at 0.5 ppm ([1]; Table 5f): 73.4% | mortality at 0.2 ppm ([1]; Table 5g): 21% | mortality at 0.5 ppm ([1]; Table 5g): 45.1% | mortality at 0.2 ppm ([1]; Table 5i): 33.5% | mortality at 0.5 ppm ([1]; Table 5i): 80.3% | mortality at 0.2 ppm ([1]; Table 5j): 33.5% | mortality at 0.5 ppm ([1]; Table 5j): 80.3% | mortality at 0.2 ppm ([1]; Table 5k): 40.2% | mortality at 0.5 ppm ([1]; Table 5k): 69.3% | mortality at 0.2 ppm ([1]; Table 5l): 40.2% | mortality at 0.5 ppm ([1]; Table 5l): 69.3% | mortality at 0.2 ppm ([1]; Table 5m): 42.5% | mortality at 0.5 ppm ([1]; Table 5m): 65% | mortality at 0.2 ppm ([1]; Table 5n): 57.1% | mortality at 0.5 ppm ([1]; Table 5n): 73.9% | Plant Protection (obs) ([2]; Table 6a, 50 ppm): 0.0 | Plant Protection (obs) ([2]; Table 6a, 250 ppm): 0.0 | Plant Protection (obs) ([2]; Table 6b, 50 ppm): 0.0 | Plant Protection (obs) ([2]; Table 6b, 250 ppm): 0.0 | mortality at 50 ppm ([3]; 2 h, Table 2h): 0.9% | mortality at 250 ppm ([3]; 2 h, Table 2h): 9.2% | mortality at 50 ppm ([3]; 48 h, Table 2d): 4.9% | mortality at 250 ppm ([3]; 48 h, Table 2d): 8.3% | mortality at 50 ppm ([3]; Table 2a): 5.9% | mortality at 250 ppm ([3]; Table 2a): 11.1% | mortality at 50 ppm ([3]; Table 2b): 46.7% | mortality at 250 ppm ([3]; Table 2b): 20% | mortality at 50 ppm ([3]; Table 2c): 16.1% | mortality at 250 ppm ([3]; Table 2c): 20.5% | mortality at 50 ppm ([3]; Table 2e): 29% | mortality at 250 ppm ([3]; Table 2e): 38.3% | mortality at 50 ppm ([3]; Table 2f): 15% | mortality at 250 ppm ([3]; Table 2f): 17.9% | mortality at 50 ppm ([3]; Table 2g): 30.6% | mortality at 250 ppm ([3]; Table 2g): 23.1% | mortality at 50 ppm ([3]; Table 2i): 7% | mortality at 250 ppm ([3]; Table 2i): 8% | mortality at 50 ppm ([4]; Table 4a): 7.1% | mortality at 250 ppm ([4]; Table 4a): 6.7% | mortality at 50 ppm ([4]; Table 4b): 0% | mortality at 250 ppm ([4]; Table 4b): 14.3% | mortality at 50 ppm ([4]; Table 4c): 26.7% | mortality at 250 ppm ([4]; Table 4c): 0%
